Tests used:
[1] = Comparison of brain penetrance between quinolines and isoquinolines (IP dosing); format: in vivo; conditions: IP 5 mg/kg, C57Bl/6 mice; for Kp / AUC: mouse; for Kp: brain/plasma, read-out: ratio (AUC brain / AUC plasma); for AUC: plasma
Description: Comparator B (see Table 7) and Compound 2 were dosed in C57Bl/6 mice at 5 mg/kg in 10% DMAC/10% Solutol HS15/80% saline. Comparator A (see Table 7) was dosed at 5 mg/kg in 5% dextrose/water. All compounds were dosed IP. Mice were sacrificed at 5, 15, 30 minutes and 1, 2, 4, 8 and 24 hours after dosing. Plasma concentration of compound was determined at all time points by LC/MS/MS. Brain concentration was determined at 1, 4, 8 and 24 hours after dosing. The AUC was calculated using WinNonLin software. The results are shown in Table 7, where plasma AUC is expressed as hr*ng/mL and brain AUC is expressed as hr*ng/g.

HDAC1 = biological target: T1, HDAC1 (Homo sapiens, UniProt Q13547); test: HDAC enzyme assay, HDAC1; format: biochemical; conditions: enzyme and compound incubated 24 hours at room temperature
T1 construct: purchased BPS Biosciences
Description: (§1) Compounds for testing were diluted in DMSO to 50 fold the final concentration and a ten point three fold dilution series was made. The compounds were diluted in assay buffer (50 mM HEPES, pH 7.4, 100 mM KCl, 0.001% Tween-20, 0.05% BSA, 20 μM TCEP) to 6 fold their final concentration. The HDAC enzymes (purchased from BPS Biosciences) were diluted to 1.5 fold their final concentration in assay buffer. The tripeptide substrate and trypsin at 0.05 μM final concentration were diluted in assay buffer at 6 fold their final concentration. The final enzyme concentrations used in these assays were 3.3 ng/ml (HDAC1), 0.2 ng/ml (HDAC2) and 0.08 ng/ml (HDAC3). The final substrate concentrations used were 16 μM (HDAC1), 10 μM (HDAC2) and 17 μM (HDAC3). Five μl of compound and 20 μl of enzyme were added to wells of a black, opaque 384 well plate in duplicate. Enzyme and compound were incubated together at room temperature for 24 hours. Five μl of substrate was added to each well, the plate was shaken for 60 seconds and placed into a Victor 2 microtiter plate reader. The development of fluorescence was monitored for 60 min and the linear rate of the reaction was calculated. The IC50 was determined using Graph Pad Prism by a four parameter curve fit.

HDAC2 = biological target: T2, HDAC2 (Homo sapiens, UniProt Q92769); test: HDAC enzyme assay, HDAC2; format: biochemical; conditions: enzyme and compound incubated 24 hours at room temperature
T2 construct: purchased BPS Biosciences
Description: as §1

HDAC3 = biological target: T3, HDAC3 (Homo sapiens, UniProt O15379); test: HDAC enzyme assay, HDAC3; format: biochemical; conditions: enzyme and compound incubated 24 hours at room temperature
T3 construct: purchased BPS Biosciences
Description: as §1

[2] = Pharmacokinetics in plasma and brain after IV administration; format: in vivo; conditions: IV 1 mg/kg, male C57BL/6 mice; for Kp / Cmax / Tmax / half-life / AUC(0-inf) / AUC(0-t) / MRT inf / clearance / Vd: mouse; for Kp: brain/plasma, read-out: AUCbrain/AUCplasma; for Vd: read-out: Vss
Description: Male C57Bl/6 mice were fasted overnight. Compounds of the invention were dissolved in dimethyl acetamide at 10 times the final concentration, then Solutol HS 15 (BASF) was added to a final concentration of 10%. Finally 80% saline was added and vortexed to achieve a clear solution. Fifteen animals were injected via the tail vein with 1 mg/kg compound. Blood was collected via retro orbital puncture into K2EDTA tubes at 5 minutes, 15 minutes, 30 minutes, 1 hour, 2 hours, 4 hours, 8 hours and 24 hours after dosing. The blood was centrifuged at 2000 g for 5 minutes at 4° C. to obtain plasma. The plasma was extracted with acetonitrile and the level of compound was analyzed by LC/MS/MS. The level of compound in plasma was calculated from a standard curve in mouse plasma. For brain levels, animals were sacrificed at 5 minutes, 15 minutes, 1 hour, 4 hours and 24 hours. Brains were removed and homogenized in acetonitrile and extracted. The level of compound in brain was calculated from a standard curve in mouse brain tissue. The IV clearance and area under the curve were calculated using WinNonLin software. The ratio of area under the curve for plasma and brain samples was calculated to produce the brain/plasma ratio.

T2 sequence (Q92769 whole entry): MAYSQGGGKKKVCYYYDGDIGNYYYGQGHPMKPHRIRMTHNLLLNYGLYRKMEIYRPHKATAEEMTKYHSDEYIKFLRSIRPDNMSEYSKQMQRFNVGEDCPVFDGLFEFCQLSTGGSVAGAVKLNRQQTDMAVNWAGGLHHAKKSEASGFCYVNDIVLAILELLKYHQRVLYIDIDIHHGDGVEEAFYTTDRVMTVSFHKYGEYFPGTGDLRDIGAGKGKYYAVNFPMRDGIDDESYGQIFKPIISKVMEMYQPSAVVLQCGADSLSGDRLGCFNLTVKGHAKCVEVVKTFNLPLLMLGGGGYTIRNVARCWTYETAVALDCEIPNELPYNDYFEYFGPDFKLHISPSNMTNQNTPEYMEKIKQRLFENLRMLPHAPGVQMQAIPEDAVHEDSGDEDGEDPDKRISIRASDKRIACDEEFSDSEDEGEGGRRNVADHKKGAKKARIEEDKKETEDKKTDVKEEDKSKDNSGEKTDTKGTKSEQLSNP
T3 sequence (O15379 whole entry): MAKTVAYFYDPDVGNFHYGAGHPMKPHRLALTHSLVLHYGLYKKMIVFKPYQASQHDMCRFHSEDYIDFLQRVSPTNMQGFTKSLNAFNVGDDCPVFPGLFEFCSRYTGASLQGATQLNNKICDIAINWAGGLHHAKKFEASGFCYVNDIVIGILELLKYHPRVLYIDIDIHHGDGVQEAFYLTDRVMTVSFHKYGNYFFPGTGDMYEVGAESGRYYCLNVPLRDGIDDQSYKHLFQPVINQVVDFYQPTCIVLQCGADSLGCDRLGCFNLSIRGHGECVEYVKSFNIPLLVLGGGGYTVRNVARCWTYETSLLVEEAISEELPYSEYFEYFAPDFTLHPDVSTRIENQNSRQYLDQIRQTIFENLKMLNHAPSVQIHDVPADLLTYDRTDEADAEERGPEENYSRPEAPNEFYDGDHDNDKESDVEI
T3 sequence (Q9Y618 395-489 partner limits assumed): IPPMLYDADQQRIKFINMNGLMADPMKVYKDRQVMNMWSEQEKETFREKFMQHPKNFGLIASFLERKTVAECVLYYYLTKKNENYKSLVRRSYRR
T1 sequence (Q13547 whole entry): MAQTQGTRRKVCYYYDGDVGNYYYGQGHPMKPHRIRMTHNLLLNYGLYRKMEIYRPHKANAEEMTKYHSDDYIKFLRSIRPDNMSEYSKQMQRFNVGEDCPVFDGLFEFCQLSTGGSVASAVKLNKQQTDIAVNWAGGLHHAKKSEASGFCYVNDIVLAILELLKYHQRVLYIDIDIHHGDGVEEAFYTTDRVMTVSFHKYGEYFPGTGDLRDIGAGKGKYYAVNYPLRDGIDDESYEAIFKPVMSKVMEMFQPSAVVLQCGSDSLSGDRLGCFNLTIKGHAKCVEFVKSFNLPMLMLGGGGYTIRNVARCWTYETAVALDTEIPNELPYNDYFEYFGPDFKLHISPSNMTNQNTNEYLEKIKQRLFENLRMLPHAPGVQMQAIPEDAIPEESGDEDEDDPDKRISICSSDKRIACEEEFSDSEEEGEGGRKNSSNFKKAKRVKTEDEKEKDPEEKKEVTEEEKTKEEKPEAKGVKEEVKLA

SMILES | AUC brain [1] [ng·h/g] | Kp [1] | AUC [1] [µg·h/mL] | IC50 (HDAC1) [nM] | IC50 (HDAC2) [nM] | IC50 (HDAC3) [nM] | brain penetrance (from brain/plasma AUC ratios) [2] | AUCINF ([2]; brain) [ng·h/g] | AUClast ([2]; brain) [ng·h/g] | Kp [2] | Cmax ([2]; brain) [ng/g] | Tmax ([2]; brain) [h] | half-life ([2]; brain) [h] | AUC(0-inf) ([2]; plasma, PK cassette) [µg·h/mL] | AUC(0-t) ([2]; plasma, PK cassette) [µg·h/mL] | MRT inf ([2]; plasma, PK cassette) [h] | clearance ([2]; plasma, PK cassette) [L/h/kg] | half-life ([2]; plasma, PK cassette) [h] | Vd ([2]; plasma, PK cassette) [L/kg]
Nc1ccc(-c2cccs2)cc1NC(=O)c1ccc2nc(N3CCNCC3)ccc2c1 [Comparator A] | 2092 | 0.16 | 12.9 | – | – | – | – | – | – | – | – | – | – | – | – | – | – | – | –
Nc1ccc(-c2cccs2)cc1NC(=O)c1cnc2cc(N3CCNCC3)ccc2c1 [Comparator B] | 655 | 0.06 | 10.8 | – | – | – | – | – | – | – | – | – | – | – | – | – | – | – | –
Nc1ccc(-c2cccs2)cc1NC(=O)c1cc2ccc(N3CCNCC3)cc2cn1 [Compound 2] | 23283 | 7.2 | 3.23 | 3 | 10 | 43 | highly brain penetrant | 13461 | 11474 | 8.33 | 783 | 1 | 9.3 | 1.62 | 1.56 | 6.97 | 0.619 | 5.29 | 4.31
Nc1ccc(-c2ccncc2)cc1NC(=O)c1cc2ccc(N3CCNCC3)cc2cn1 [Compound 3] | – | – | – | 7 | 8 | 74 | – | 1439 | 1237 | 1.8 | 126 | 0.25 | 8.63 | 0.799 | 0.77 | 5.45 | 1.25 | 5.68 | 6.82
Nc1ccc(-c2ccccc2)cc1NC(=O)c1cc2ccc(N3CCNCC3=O)cc2cn1 [Compound 4] | – | – | – | 6 | 8 | 182 | – | 390 | 319 | 0.1 | 145 | 0.25 | 1.66 | 3.82 | 3.47 | 8.72 | 0.262 | 7.71 | 2.28
CN(C)CCNc1ccc2cc(C(=O)Nc3cc(-c4cccs4)ccc3N)ncc2c1 [Compound 5] | – | – | – | 2 | 6 | 19 | – | – | – | – | – | – | – | – | – | – | – | – | –
Nc1ccc(-c2cccs2)cc1NC(=O)c1cc2ccc(NC(=O)C3CCCN3)cc2cn1 (centres unmarked) [Compound 6] | – | – | – | 5 | 19 | 121 | – | – | – | – | – | – | – | – | – | – | – | – | –
CN1CCCC1C(=O)Nc1ccc2cc(C(=O)Nc3cc(-c4cccs4)ccc3N)ncc2c1 (centres unmarked) [Compound 7] | – | – | – | 3 | 10 | 66 | – | – | – | – | – | – | – | – | – | – | – | – | –
Nc1ccc(-c2ccc(F)cc2)cc1NC(=O)c1cc2ccc(N3CCNCC3)cc2cn1 [Compound 9] | – | – | – | – | – | – | highly brain penetrant | 9607 | 9444 | 10.3 | 1000 | 1 | 4.4 | – | – | – | – | – | –
